Experimental findings from PMC4575030 (PLoS ONE, 2015) are described below.

Usually Kp stands for tissue or fluid exposure divided by exposure in the circulation. As usually defined, the IC50 is the concentration that gives 50% inhibition. By fraction unbound is commonly meant the share of the substance not bound to proteins or other matrix. A higher fraction unbound goes with weak binding.

Series [1] can be described thus: Terminal plasma and brain concentrations after behavioral testing. As to conditions: for Kp: brain and plasma, ratio of concentrations measured following the formalin test; for Effective [plasma]: mean terminal plasma concentration at the lowest effective dose in the rat formalin test; for concentration at 160 min / Terminal plasma concentration: mean; for concentration at 160 min: n = 4; for Terminal plasma concentration: n = 8. The format is in vivo, rat.

In a further series the test system is naïve rats. Briefly: Open field activity (basic movement). It is filed as in vivo, rat. To be noted: formalin-naïve rats. As to the method: Basic movement was measured using the Photobeam Activity System Open Field (San Diego Instruments, San Diego, CA) equipped with 48 infrared photocell emitters and detectors. Photobeams used to measure vertical movement were positioned 14 cm above the test chamber floor. Each testing chamber was made of Plexiglas (41 x 41 x 36 cm) and was devoid of any bedding. At the beginning of the test session, each animal was placed in a separate testing chamber and the room lights were turned off. Basic movement was measured for 30 minutes.

The target of another series is T1, hNav1.7 (Homo sapiens, UniProt Q15858).
T1 construct: expressed in transfected cells; host or cells: HEK 293
T1 sequence (Q15858 whole entry): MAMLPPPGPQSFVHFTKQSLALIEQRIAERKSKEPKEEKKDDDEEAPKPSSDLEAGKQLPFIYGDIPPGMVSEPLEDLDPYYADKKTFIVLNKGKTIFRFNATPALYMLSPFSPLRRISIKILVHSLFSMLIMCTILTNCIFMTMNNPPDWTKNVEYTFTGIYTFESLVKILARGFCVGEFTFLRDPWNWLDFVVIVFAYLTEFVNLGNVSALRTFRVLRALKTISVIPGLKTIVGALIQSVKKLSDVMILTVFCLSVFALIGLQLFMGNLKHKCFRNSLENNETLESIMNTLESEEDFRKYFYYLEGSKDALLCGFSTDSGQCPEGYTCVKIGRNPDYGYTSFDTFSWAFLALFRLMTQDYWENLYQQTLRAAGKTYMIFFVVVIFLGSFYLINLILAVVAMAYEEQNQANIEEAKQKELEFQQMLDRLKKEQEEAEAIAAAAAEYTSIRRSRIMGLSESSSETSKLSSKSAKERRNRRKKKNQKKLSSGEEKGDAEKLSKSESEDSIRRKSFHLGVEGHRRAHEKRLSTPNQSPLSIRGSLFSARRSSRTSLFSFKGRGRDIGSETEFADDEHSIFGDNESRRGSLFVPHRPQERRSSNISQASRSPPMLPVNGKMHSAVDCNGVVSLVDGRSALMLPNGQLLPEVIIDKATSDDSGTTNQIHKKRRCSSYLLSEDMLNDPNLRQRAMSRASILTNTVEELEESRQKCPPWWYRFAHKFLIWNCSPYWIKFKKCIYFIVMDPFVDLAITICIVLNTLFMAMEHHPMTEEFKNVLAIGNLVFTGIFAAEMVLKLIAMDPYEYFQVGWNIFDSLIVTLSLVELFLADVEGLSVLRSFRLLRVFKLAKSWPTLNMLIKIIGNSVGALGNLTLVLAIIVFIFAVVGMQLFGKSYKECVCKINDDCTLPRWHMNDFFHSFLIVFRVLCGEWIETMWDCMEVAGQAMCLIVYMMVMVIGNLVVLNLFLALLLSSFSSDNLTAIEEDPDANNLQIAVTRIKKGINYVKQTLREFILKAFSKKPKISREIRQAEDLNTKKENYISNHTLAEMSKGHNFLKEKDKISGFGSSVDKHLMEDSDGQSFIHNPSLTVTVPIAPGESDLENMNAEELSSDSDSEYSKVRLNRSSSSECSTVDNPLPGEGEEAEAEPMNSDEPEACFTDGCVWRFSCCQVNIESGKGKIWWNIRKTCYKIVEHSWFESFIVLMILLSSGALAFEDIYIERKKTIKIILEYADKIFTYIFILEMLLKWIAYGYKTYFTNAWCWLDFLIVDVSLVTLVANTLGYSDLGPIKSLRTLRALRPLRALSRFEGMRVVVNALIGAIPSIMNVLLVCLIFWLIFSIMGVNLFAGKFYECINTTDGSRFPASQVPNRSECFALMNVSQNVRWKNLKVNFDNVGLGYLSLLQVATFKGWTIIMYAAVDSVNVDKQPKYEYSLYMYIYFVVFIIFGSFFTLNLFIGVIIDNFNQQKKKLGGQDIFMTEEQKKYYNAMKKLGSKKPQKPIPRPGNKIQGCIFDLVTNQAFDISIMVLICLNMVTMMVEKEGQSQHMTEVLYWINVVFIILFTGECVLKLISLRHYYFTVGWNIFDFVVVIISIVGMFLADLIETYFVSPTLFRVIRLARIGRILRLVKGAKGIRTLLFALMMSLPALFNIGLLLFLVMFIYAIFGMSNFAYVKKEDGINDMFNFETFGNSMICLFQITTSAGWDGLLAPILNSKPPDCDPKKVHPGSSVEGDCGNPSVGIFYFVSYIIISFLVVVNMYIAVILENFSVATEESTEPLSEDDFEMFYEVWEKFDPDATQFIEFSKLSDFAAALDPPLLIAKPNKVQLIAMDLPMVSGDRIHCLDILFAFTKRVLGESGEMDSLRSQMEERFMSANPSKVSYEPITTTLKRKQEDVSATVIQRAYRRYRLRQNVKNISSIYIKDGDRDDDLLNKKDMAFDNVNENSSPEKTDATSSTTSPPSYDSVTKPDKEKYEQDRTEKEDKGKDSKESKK
Briefly: Manual whole cell patch clamp electrophysiology on HEK 293 cells stably expressing hNav1.7. The format is cell-based. The procedure:
Except as indicated, recordings to determine potency of aminotriazines on Nav1.7 were made with manual electrophysiology. HEK 293 cells stably expressing hNav1.7 were voltage-clamped using the whole cell patch clamp configuration. Cells were plated onto 35 mm culture dishes 0–24 hours before recording, and tissue culture medium was exchanged for external solution containing (in mM) 140 NaCl, 5 KCl, 2 CaCl2, 1 MgCl2, 10 HEPES, 11 glucose, pH 7.4 with NaOH. Patch pipettes were pulled from borosilicate glass capillaries (1.2 mm outer diameter, World Precision Instruments, Sarasota, FL) with a P-97 pipette puller (Sutter Instruments, Novato, CA) and backfilled with internal solution containing (in mM) 62.5 CsCl, 75 CsF, 2.5 MgCl2, 5 EGTA, 10 HEPES, pH 7.25 with CsOH. Pipette resistances were between 1.5 and 2.0 MΩ. After formation of the whole-cell configuration, cells were lifted off the dish bottom with the patch pipette and positioned directly in front of a microarray of glass tubes (each tube internal diameter ~ 1 mm) with each tube containing continuously flowing control or test solution. A full current-voltage relation was recorded from each cell, and cells with poor space clamp as indicated by discontinuous I-V relation or by prolonged or nonexponential current kinetics were discarded. Solution switching was accomplished by moving the microarray with computer control via an RSC-160 rapid solution exchanger (Bio-Logic, Claix, France). Currents were recorded with an Axopatch 200B patch-clamp amplifier driven by pCLAMP software, filtered (4-pole Bessel) at 5 kHz during acquisition, and digitized at 20 kHz using pClamp9.2. Whole cell capacitance and series resistance were compensated at 0%- 80%, and reported voltages were uncorrected for liquid junction potentials. Recordings were made at room temperature. Concentration-response curves were taken by measuring inward Nav1.7 current every five to six seconds with a 10 ms to 20 ms depolarization to near the peak of the current-voltage relation, before and after steady-state inhibition by a given concentration of aminotriazine. For concentration response curves on partially inactivated channels, holding voltage was set to produce 20% fractional inactivation. […] Occasionally two compound concentrations were tested in parallel without resetting the voltage, if inhibition was rapid and the current level steady. […] Concentration response curves on non-inactivated channels generally were taken with multiple concentrations added in series without washoff of the previous concentration.
On the technique in general: Patch clamp records ionic current or voltage across a cell membrane.

For another series, the target named is rat Nav1.7 (Rattus norvegicus, UniProt O08562). In words: PatchXpress automated electrophysiology on rat Nav1.7. The format is cell-based. As to conditions: 20%-inactivated rat Nav1.7.
Sequence of rat Nav1.7 (O08562 whole entry): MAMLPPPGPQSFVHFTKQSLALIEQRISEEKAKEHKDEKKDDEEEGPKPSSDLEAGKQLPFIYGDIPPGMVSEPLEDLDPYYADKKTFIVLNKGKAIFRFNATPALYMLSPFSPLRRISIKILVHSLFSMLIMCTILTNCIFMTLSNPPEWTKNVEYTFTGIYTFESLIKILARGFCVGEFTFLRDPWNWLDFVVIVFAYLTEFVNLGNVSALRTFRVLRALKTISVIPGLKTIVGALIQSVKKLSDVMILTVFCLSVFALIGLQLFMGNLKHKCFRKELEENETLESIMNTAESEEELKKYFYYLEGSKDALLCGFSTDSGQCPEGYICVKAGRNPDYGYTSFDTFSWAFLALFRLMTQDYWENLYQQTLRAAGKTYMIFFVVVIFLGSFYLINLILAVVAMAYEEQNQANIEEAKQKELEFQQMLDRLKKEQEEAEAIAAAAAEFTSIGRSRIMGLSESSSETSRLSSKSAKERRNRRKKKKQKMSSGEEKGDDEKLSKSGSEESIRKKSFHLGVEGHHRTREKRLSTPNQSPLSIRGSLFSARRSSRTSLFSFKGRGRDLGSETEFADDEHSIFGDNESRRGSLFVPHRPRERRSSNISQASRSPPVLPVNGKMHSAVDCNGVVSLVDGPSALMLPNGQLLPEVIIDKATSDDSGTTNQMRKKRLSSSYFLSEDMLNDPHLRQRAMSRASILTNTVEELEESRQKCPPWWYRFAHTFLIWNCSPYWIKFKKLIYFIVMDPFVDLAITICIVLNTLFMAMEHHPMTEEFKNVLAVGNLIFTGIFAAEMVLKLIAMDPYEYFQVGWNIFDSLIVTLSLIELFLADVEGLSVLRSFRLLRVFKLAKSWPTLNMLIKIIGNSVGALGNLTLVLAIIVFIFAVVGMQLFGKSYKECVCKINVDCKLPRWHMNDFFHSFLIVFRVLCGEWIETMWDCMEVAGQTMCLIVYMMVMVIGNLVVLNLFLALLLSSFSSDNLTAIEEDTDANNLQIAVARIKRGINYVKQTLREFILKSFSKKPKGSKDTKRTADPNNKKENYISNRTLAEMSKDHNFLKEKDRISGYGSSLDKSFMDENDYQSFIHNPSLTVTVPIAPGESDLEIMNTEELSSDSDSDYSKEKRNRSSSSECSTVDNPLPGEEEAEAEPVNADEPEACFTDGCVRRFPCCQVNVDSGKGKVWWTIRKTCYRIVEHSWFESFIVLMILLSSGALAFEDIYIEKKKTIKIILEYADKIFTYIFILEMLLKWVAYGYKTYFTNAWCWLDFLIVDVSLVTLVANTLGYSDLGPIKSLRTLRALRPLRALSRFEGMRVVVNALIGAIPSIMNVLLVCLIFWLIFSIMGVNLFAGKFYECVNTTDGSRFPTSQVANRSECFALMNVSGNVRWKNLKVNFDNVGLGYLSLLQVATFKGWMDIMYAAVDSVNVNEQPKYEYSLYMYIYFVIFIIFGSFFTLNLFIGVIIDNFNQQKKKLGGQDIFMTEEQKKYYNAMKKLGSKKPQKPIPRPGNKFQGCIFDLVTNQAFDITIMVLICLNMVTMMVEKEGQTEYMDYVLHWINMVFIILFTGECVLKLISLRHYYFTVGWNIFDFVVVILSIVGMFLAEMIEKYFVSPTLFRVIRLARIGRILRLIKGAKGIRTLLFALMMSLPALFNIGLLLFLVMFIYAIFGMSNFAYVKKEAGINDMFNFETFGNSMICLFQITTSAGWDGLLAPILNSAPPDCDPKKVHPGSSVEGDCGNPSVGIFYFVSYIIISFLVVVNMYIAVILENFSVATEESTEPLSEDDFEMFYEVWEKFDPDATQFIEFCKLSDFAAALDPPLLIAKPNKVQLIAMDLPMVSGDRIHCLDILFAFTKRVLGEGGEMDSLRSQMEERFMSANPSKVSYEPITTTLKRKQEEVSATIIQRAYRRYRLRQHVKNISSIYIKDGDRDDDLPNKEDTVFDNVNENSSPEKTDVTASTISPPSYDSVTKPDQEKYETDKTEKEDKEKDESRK
In series [2] the test system is rat formalin model of pain. In words: Formalin test (formalin-induced flinching). It is filed as in vivo. As to conditions: for Decrease in formalin flinching: phase 2 (10 to 40 min), percent of vehicle; for Analgesic efficacy: rat formalin model, significant (p < 0.05) decrease in flinching at a dose without a reduction in open field movement that obviated the result; for Reduction in formalin flinching, result in words: rat formalin test. As to the method:
Formalin-induced flinching was measured using the Automated Nociception Analyzer (ANA) (University Anesthesia Research & Development Group, La Jolla, CA). Rats were habituated to the ANA testing chambers for at least 30 minutes prior to the formalin injection. At test time, each rat was removed from the testing chamber and gently wrapped in a towel. 50 μL of 2.5% formalin solution was injected into the dorsal surface of the left hind paw with a 30 gauge needle. A small metal band was then affixed to the plantar side of the injected paw with one drop of super glue. The animal was then unwrapped from the towel, placed back in the testing chamber, and flinching behavior was scored for 40 minutes by the ANA software. While minimized, non-painful paw movement from the natural activity of an alert animal could be erroneously binned by the automated recording system as a nociceptive behavior. These behaviors are not subtracted from the flinching total. […] Total flinching behavior was used as the endpoint of the assay.

Series [3] in a line: In vitro plasma protein binding. The format is in vitro ADME.
[4] abbreviates: 10 mg/kg p.o., negative value = increase.
Where [5] appears, read: IC50 (μM) 20%-inactivated, 20%-inactivated human Nav1.7, holding voltage set to produce 20% fractional inactivation.
Where [6] appears, read: non-inactivated human Nav1.7, holding voltage -140 mV or occasionally -120 mV, peak concentration tested 10 μM, read-out: IC50 (μM) Non-inactivated.
The mark [7] stands for this setting: 30 mg/kg p.o., listed as compound A.
Where [8] appears, read: 60 mg/kg p.o., listed as compound A.

SMILES strings stand for the structures. Values joined by “and” are separate entries in the source; they are usually repeats but may differ in a detail not shown here. Identical values can stand only once. Like-named read-outs stand apart in the source and are kept apart here.

Turning to `CC(=O)Nc1cccc(Nc2ncnc(N3CCc4cc(OC(F)(F)F)ccc4C3)n2)c1` [Compound F, N-(3-((4-(6-(trifluoromethoxy)-3,4-dihydro-2(1H)-isoquinolinyl)-1,3,5-triazin-2-yl)amino)phenyl)acetamide], the partition ratio (Kp) in series [1] (rat) was found to be 0.33. The “Effective [plasma]” value in series [1] was 3.70 µM. Further, the figures for the “Decrease in basic movement” value in the series with naïve rats (setting [4]), in the series with naïve rats (30 mg/kg p.o.) and in the series with naïve rats (100 mg/kg p.o.) were 11%, 33% and 54%, respectively. The results for the IC50 on hNav1.7 (setting [5]), at hNav1.7 (setting [6]) and against rat Nav1.7 were 0.18 µM, more than 10 µM and 1000 nM, respectively. Moreover, the “Decrease in formalin flinching” value in series [2] (10 mg/kg p.o.) amounted to 0%; in series [2] (30 mg/kg p.o.), 35%; in series [2] (100 mg/kg p.o.) it was 67%. The Analgesic efficacy entry in series [2] is reported as “Yes”. For the same compound, the “Reduction in formalin flinching, result in words” value (“Reduction in formalin flinching” for short) in series [2] is “statistically significant and plasma concentration-dependent reduction in formalin flinching”. Besides, the fraction unbound in series [3] was found to be 0.001.
Regarding `CC(=O)Nc1cccc(Nc2ncnc(N3CCC(Oc4ccc(Cl)c(F)c4)CC3)n2)c1C` [Compound G, N-(3-((4-(4-(4-chloro-3-fluorophenoxy)-1-piperidinyl)-1,3,5-triazin-2-yl)amino)-2-methylphenyl)acetamide], the Kp in series [1] (rat) came to 0.09. The IC50 at hNav1.7 (setting [5]) stood at 0.3 µM; at hNav1.7 (setting [6]), 6.6 µM; on rat Nav1.7 it was 800 nM. In series [2], the Analgesic efficacy entry is “No”. Besides, the “Reduction in formalin flinching” value in series [2] is recorded as “did not achieve statistically significant reversals in formalin flinching”. This compound had a fraction unbound in series [3] of 0.006.
Take `CN1C(=O)CN=C(c2ccccc2)c2cc(Cl)ccc21` [Diazepam, diazepam, reference compound]: in series [2] (diazepam 10 mg/kg, lowest dose with statistically significant reduction), the “Reduction in formalin-induced flinching” value is listed as 22%.
As for `CC(=O)Nc1cc(Nc2ncnc(N3CC=C(c4ccc(C#N)cc4)CC3)n2)ccc1F` [Compound E, N-(5-((4-(4-(4-cyanophenyl)-3,6-dihydro-1(2H)-pyridinyl)-1,3,5-triazin-2-yl)amino)-2-fluorophenyl)acetamide], the Kp in series [1] (rat) came to 0.49. In series [1], the “Effective [plasma]” value was found to be 6.14 µM. Further, the figures for the “Decrease in basic movement” value with naïve rats (setting [4]), in the series with naïve rats (30 mg/kg p.o.) and with naïve rats (100 mg/kg p.o.) were 2%, 29% and 29%, respectively. Also, the results for the IC50 at hNav1.7 (setting [5]), at hNav1.7 (setting [6]) and against rat Nav1.7 were 0.09 µM, 2.1 µM and 3500 nM, respectively. Further, the “Decrease in formalin flinching” value in series [2] (10 mg/kg p.o.) is 18%; in series [2] (30 mg/kg p.o.), 62%; in series [2] (100 mg/kg p.o.), 83%. The Analgesic efficacy entry in series [2] is listed as “Yes”. Also, the “Reduction in formalin flinching” value in series [2] is “statistically significant and plasma concentration-dependent reduction in formalin flinching”. The fraction unbound in series [3] was 0.009.
As to `CC(=O)Nc1cccc(Nc2ncnc(N3CCC(OCc4ccc(F)c(F)c4)CC3)n2)c1C` [Compound D, N-(3-((4-(4-((3,4-difluorobenzyl)oxy)-1-piperidinyl)-1,3,5-triazin-2-yl)amino)-2-methylphenyl)acetamide], the Kp in series [1] (rat) was found to be 0.19. For the same compound, the “Effective [plasma]” value in series [1] turned out to be 1.27 µM. Moreover, in the series with naïve rats (10 mg/kg p.o., value in parentheses corresponds to a measured increase), the “Increase in basic movement (in parentheses in the column Decrease in basic movement)” value is reported as “(1.4%)”. Moreover, the “Decrease in basic movement” value was found to be 28% with naïve rats (30 mg/kg p.o.) and 50% in the series on naïve rats (60 mg/kg p.o.). In addition, the concentration for half-maximal inhibition (IC50) is 0.6 µM at hNav1.7 (setting [5]), more than 10 µM on hNav1.7 (setting [6]) and 1700 nM at rat Nav1.7. For the same compound, the “Decrease in formalin flinching” value in series [2] (10 mg/kg p.o.) is recorded as 36%; in series [2] (30 mg/kg p.o.) it was 62%; in series [2] (60 mg/kg p.o.), 83%. Moreover, in series [2], the Analgesic efficacy result was “Yes”. The “Reduction in formalin flinching” value in series [2] is “statistically significant and plasma concentration-dependent reduction in formalin flinching”. Besides, the fraction unbound in series [3] is 0.067.
Regarding `CC(=O)Nc1cccc(Nc2ncnc(N3CCC(Oc4ccc(Cl)cc4)CC3)n2)c1C` [Compound A, N-(3-((4-(4-(4-chlorophenoxy)-1-piperidinyl)-1,3,5-triazin-2-yl)amino)-2-methylphenyl)acetamide], the Kp in series [1] (rat) is 0.1. Also, the concentration at 160 min stood at 280 nM in series [1] (formalin test, 10 mg/kg p.o.); 880 nM in series [1] (formalin test, 30 mg/kg p.o.); 1540 nM in series [1] (rat, brain, po, formalin test, 60 mg/kg p.o.). In addition, the Terminal plasma concentration came to 3.02 µM in series [1] (formalin test, 10 mg/kg p.o.); 8.07 µM in series [1] (formalin test, 30 mg/kg p.o.); 13.5 µM in series [1] (formalin test, 60 mg/kg p.o.); 2.75 µM in series [1] (open field test, 10 mg/kg p.o.); 5.53 µM in series [1] (open field test, 30 mg/kg p.o.); 13.0 µM in series [1] (open field test, 60 mg/kg p.o.). The “Effective [plasma]” value in series [1] came out at 3.02 µM. For the same compound, the “Decrease in basic movement” value with naïve rats (setting [4]) was -4.2%; with naïve rats (30 mg/kg p.o.) it was 13.5% and 14%; in the series on naïve rats (setting [7]) it was 14%; in the series with naïve rats (60 mg/kg p.o.) it was 46%; in the series on naïve rats (setting [8]), 46%. Moreover, the IC50 against hNav1.7 (setting [5]) is 0.19 µM; on hNav1.7 (setting [6]) it was more than 10 µM; against rat Nav1.7, 520 nM. Also, the “Decrease in formalin flinching” value is 31.4% and 32% in series [2] (10 mg/kg p.o.); 32% in series [2] (10 mg/kg p.o., listed as compound A); 66.1% and 66% in series [2] (30 mg/kg p.o.); 66% in series [2] (setting [7]); 85% in series [2] (60 mg/kg p.o.); 85% and 84.6% in series [2] (setting [8]). Also, the Analgesic efficacy result in series [2] is “Yes”. The fraction unbound in series [3] is 0.013.
Regarding `CC(=O)Nc1cccc(Nc2ncnc(N3CCC(OCc4ccccc4)CC3)n2)c1` [Compound H, N-(3-((4-(4-(benzyloxy)-1-piperidinyl)-1,3,5-triazin-2-yl)amino)phenyl)acetamide], in series [2], the Analgesic efficacy entry is “No” and the “Reduction in formalin flinching” value was “did not achieve statistically significant reversals in formalin flinching”.
